{
  "source": "patent US20110028444A1",
  "about": "“PHARMACEUTICALLY ACCEPTABLE SALTS OF ANTI-INFECTION QUINOLONE COMPOUNDS” (priority 2008, published 2011)",
  "key": {"Pseudomonas aeruginosa": {"test_system": "Pseudomonas aeruginosa", "test": "In-vitro antibacterial test, agar dilution MIC", "format": "cell-based", "settings": "Pseudomonas aeruginosa, read-out: In-vitro MIC"}, "mice": {"test_system": "mice", "settings": "mouse, in vivo; cited from earlier work"}, "rats": {"test_system": "rats", "settings": "rat, in vivo; cited from earlier work"}, "Sprague-Drwlog rats": {"test_system": "Sprague-Drwlog rats", "settings": "intravenous injection, four weeks; cited from earlier work"}, "Staphylococcus aureus": {"test_system": "Staphylococcus aureus", "test": "In-vitro antibacterial test, agar dilution MIC", "format": "cell-based", "settings": "Staphylococcus aureus, read-out: In-vitro MIC"}, "Streptococcus pneumoniae": {"test_system": "Streptococcus pneumoniae", "test": "In-vitro antibacterial test, agar dilution MIC", "format": "cell-based", "settings": "Streptococcus pneumoniae; agar dilution; read-out: In-vitro MIC", "method": "(§1) Test method: the agar dilution method was used for the minimum inhibitory concentration (MIC) determination. The antibacterial chemicals were mixed with given amounts of agar in various concentrations and the mixtures were made into solid plates. Each plate had the antibacterial concentration two times higher than the next plate. Bacteria species were then added to the surface of the plates, cultured, and observed for their growth.\n(§2) Other bacteria included those isolated from sputum, throat swab or urine of patients with acute bacterial respiratory tract infection or urinary tract infection and identified by the hospitals.\n(§3) (S)-6-fluoro-1-methyl-4-oxo-7-(1-piperazinyl)-1H,4H-[1,3]thiazeto[3,2-a]quino line-3-carboxylic acid lactate and other test samples, equivalent to 96 mg of ulifloxacin, were dissolved in sterilized distilled water to make up 50 mL of each solution."}, "Enterobacter cloacae": {"test_system": "Enterobacter cloacae", "test": "In-vitro antibacterial test, agar dilution MIC", "format": "cell-based", "settings": "agar dilution, read-out: In-vitro MIC"}, "Escherichia coli": {"test_system": "Escherichia coli", "test": "In-vitro antibacterial test, agar dilution MIC", "format": "cell-based", "settings": "Escherichia coli; agar dilution; read-out: In-vitro MIC"}, "[1]": {"test": "Solubility test: maximum solubility in water", "format": "physicochemical", "settings": "25 °C, water, thermodynamic from solid", "method": "Three lots of mesylates and three lots of lactates, respectively, were subjected to preliminary tests for maximum solubility in water. At ambient temperature (25° C.), 0.2 g of sample was dissolved in 1 mL of water. To the solution was added 0.1 g of the sample each time until the sample could no longer be dissolved. The amount of sample dissolved was the maximum solubility."}, "Vibrio cholerae": {"test_system": "Vibrio cholerae", "test": "In-vitro antibacterial test, agar dilution MIC", "format": "cell-based", "settings": "Vibrio cholerae, read-out: In-vitro MIC"}, "Klebsiella pneumoniae": {"test_system": "Klebsiella pneumoniae", "test": "In-vitro antibacterial test, agar dilution MIC", "format": "cell-based", "settings": "Klebsiella pneumoniae"}, "Enterococcus faecalis": {"test_system": "Enterococcus faecalis", "test": "In-vitro antibacterial test, agar dilution MIC", "format": "cell-based", "settings": "read-out: In-vitro MIC"}, "[2]": {"test_system": "New Zealand rabbit ear vein and surrounding tissues", "test": "Vascular irritation tests", "format": "in vivo, New Zealand rabbits", "settings": "vein injection once a day for 3 days, high and low doses", "source_text": "Sixteen New Zealand rabbits were divided into 4 groups: a control group and three treatment groups for compounds 4, 5, and 6, respectively; each group had 4 rabbits. The rabbits of the treatment groups were vein-injected on their left ears with high doses of the test samples and on their right ears with low doses of the test samples. The rabbits of the control group were rein-injected on their both left and right ears with sodium chloride solution. The injections continued for 3 days, once a day. Two rabbits from each group were anatomized after 24 hours of each injection."}, "[3]": {"test_system": "Klebsiella pneumoniae, Pseudomonas aeruginosa, Staphylococcus aureus, Escherichia coli, Enterococcus faecalis, Streptococcus pneumoniae, Enterobacter cloacae …", "test": "In-vitro antibacterial tests, summary over the tested bacteria", "format": "cell-based", "method": "as §1, §2, §3"}, "[4]": {"settings": "high dose group (60 mg/kg·bw), after 28 days, tissue microscopy"}},
  "note": "Where two headings read alike, the source gives them in different places.",
  "data": [
    {"molecule": "CC1Sc2c(C(=O)O)c(=O)c3cc(F)c(N4CCNCC4)cc3n21", "note": "(racemic) [Ulifloxacin, 6-fluoro-1-methyl-4-oxo-7-(1-piperazinyl)-1H,4H-[1,3]thiazeto[3,2-a]quinoline-3-carboxylic acid, reference compound]", "values": [
      {"measurement": "MIC", "setting": "Pseudomonas aeruginosa; agar dilution", "value": 0.5, "unit": "µg/mL"},
      {"measurement": "toxic effects of intravenous injection", "setting": "mice", "value": "losing weight, testicular atrophy, and visible pulmonary congestion"},
      {"measurement": "toxic effects of intravenous injection", "setting": "rats", "value": "convulsions, difficult breathing, injection site redness, swelling, and necrosis"},
      {"measurement": "NOAEL (no observed adverse effect level) dose", "setting": "Sprague-Drwlog rats", "value": 3, "unit": "mg/kg"},
      {"measurement": "MIC", "setting": "Staphylococcus aureus; agar dilution", "value": 0.5, "unit": "µg/mL"},
      {"measurement": "MIC", "setting": "Streptococcus pneumoniae", "value": 0.031, "unit": "µg/mL"},
      {"measurement": "MIC", "setting": "Enterobacter cloacae", "value": 1, "unit": "µg/mL"},
      {"measurement": "MIC", "setting": "Escherichia coli", "value": 0.08, "unit": "µg/mL"}
    ]},
    {"molecule": "CS(=O)(=O)O.C[C@@H]1Sc2c(C(=O)O)c(=O)c3cc(F)c(N4CCNCC4)cc3n21", "note": "[Compound 5, (S)-6-fluoro-1-methyl-4-oxo-7-(1-piperazinyl)-1H,4H-[1,3]thiazeto[3,2-a]quinoline-3-carboxylic acid mesylate]", "values": [
      {"measurement": "MIC", "setting": "Pseudomonas aeruginosa", "value": 0.25, "unit": "µg/mL"},
      {"measurement": "MIC", "setting": "Staphylococcus aureus", "value": 0.25, "unit": "µg/mL"},
      {"measurement": "solubility", "setting": "[1]", "value": 490, "unit": "mg/mL"},
      {"measurement": "MIC", "setting": "Vibrio cholerae", "value": 0.02, "unit": "µg/mL"},
      {"measurement": "MIC", "setting": "Streptococcus pneumoniae", "value": 0.01, "unit": "µg/mL"},
      {"measurement": "MIC", "setting": "Klebsiella pneumoniae", "value": 0.02, "unit": "µg/mL"},
      {"measurement": "MIC", "setting": "Enterococcus faecalis", "value": 0.2, "unit": "µg/mL"},
      {"measurement": "MIC", "setting": "Enterobacter cloacae", "value": 0.5, "unit": "µg/mL"},
      {"measurement": "NOAEL (no observed adverse effect level)", "setting": "SD rats; SD rats, 28 days continuous intravenous administration, calculated based on NM394", "value": 30, "unit": "mg/kg·bw"},
      {"measurement": "targeted organ of toxicity", "setting": "SD rats; SD rats, intravenous", "value": "the kidney"},
      {"measurement": "rats with crystals in renal tubules", "setting": "SD rats; [4]", "value": "two"},
      {"measurement": "rats with kidney protein casts", "setting": "SD rats; [4]", "value": "one"},
      {"measurement": "rats with mild cortical tubular dilatation", "setting": "SD rats; [4]", "value": "two"},
      {"measurement": "irritation to ear vein and surrounding tissues", "setting": "[2]", "value": "no irritation"},
      {"measurement": "antibacterial activities compared with compounds 7 and 8", "setting": "[3]; against the above four bacteria, concentrations calculated as equivalents to NM394", "value": "slightly stronger"},
      {"measurement": "antibacterial activity (in words)", "setting": "[3]; against the eight tested bacteria", "value": "relatively strong antibacterial activity"}
    ]}
  ]
}
